Values of other authors as cited in patent publication US7335681B2, “Amino ceramide-like compounds and therapeutic methods of use” (The Regents of the University of Michigan, priority 2001, dated 2008).

Legend:
[1] = tested on: Ehrlich ascites carcinoma cells
E. coli = conditions: PDMP treatment
GlcCer = conditions: in vivo

| Compound | antitumor effect in mice [1] | adherence of E. coli to mammalian cells (E. coli) | cellular content of PKC (PKC) | tissue levels of GlcCer (GlcCer) |
| --- | --- | --- | --- | --- |
| CCCCCCCCCC(=O)N[C@H](CN1CCOCC1)[C@H](O)c1ccccc1 [PDMP, 1R-phenyl-2R-decanoylamino-3-morpholino-1-propanol] | cure mice of cancer | reduces the adherence | lower the cellular content of PKC | – |
| CN(C)CCCN1c2ccccc2Sc2ccc(Cl)cc21 [chlorpromazine] | – | – | – | lower tissue levels of GlcCer |
